Source: patent EP4722213A1, “NITROGEN-CONTAINING FUNCTIONAL GROUP-SUBSTITUTED PYRIDAZINOPYRIDONE DERIVATIVE AND USE THEREOF” (Sichuan Huiyu Pharmaceutical Co., Ltd., priority 2023, dated 2024)
Where a name gives a salt, the structure may show the parent alone.

Biological target: T1, SOS1 (Homo sapiens, UniProt Q07889)
T1 sequence (Q07889 1-1333): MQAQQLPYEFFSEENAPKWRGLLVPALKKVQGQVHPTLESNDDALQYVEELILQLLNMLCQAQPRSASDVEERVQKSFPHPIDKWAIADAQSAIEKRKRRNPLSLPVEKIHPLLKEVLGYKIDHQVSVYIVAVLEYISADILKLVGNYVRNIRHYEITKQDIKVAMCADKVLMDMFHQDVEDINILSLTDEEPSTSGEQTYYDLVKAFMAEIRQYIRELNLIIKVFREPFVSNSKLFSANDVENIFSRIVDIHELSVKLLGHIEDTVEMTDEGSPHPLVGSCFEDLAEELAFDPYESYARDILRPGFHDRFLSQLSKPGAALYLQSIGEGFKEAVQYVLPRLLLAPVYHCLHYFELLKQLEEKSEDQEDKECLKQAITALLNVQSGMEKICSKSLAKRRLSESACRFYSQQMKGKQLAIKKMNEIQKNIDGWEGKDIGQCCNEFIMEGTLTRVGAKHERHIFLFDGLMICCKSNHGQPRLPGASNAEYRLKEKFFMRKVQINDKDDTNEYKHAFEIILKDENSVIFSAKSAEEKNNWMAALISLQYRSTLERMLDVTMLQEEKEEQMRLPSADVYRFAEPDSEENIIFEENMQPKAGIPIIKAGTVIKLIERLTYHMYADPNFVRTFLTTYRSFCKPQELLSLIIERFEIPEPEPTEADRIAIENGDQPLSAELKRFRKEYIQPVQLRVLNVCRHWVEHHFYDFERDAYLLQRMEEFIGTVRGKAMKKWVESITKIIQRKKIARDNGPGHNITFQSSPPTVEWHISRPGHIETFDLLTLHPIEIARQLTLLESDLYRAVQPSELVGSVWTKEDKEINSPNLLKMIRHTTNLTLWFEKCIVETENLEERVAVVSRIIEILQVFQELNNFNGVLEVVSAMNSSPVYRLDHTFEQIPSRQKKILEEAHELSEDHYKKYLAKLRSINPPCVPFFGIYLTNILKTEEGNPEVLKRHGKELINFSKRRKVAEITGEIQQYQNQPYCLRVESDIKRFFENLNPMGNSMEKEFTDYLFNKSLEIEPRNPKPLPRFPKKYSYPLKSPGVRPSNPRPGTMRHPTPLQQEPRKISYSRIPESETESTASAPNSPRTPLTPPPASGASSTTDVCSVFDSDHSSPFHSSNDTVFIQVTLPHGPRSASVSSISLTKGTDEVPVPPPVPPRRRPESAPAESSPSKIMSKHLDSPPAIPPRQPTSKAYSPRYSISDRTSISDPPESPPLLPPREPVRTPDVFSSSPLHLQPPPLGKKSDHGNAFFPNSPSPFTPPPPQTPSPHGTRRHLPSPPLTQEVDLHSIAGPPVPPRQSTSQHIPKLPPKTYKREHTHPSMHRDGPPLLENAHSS
Assay: biochemical

C[C@@H](Nc1nnc(N2CCN(C3CCCC3)CC2)c2cc(=O)n(C3(C)CC3)cc12)c1cccc(C(F)(F)F)c1F [Example 171, (R)-4-((1-(2-fluoro-3-(trifluoromethyl)phenyl)ethyl)amino)-1-(4-cyclopentylpiperazin-1-yl)-6-(1-methylcyclopropyl) pyrido[3,4-d]pyridazin-7(6H)-one]
IC50: 5 nM

C[C@@H](Nc1nnc(N2CCN(C(C)(C)C)CC2)c2cc(=O)n(C3(C)CC3)cc12)c1cccc(C(F)(F)F)c1F [Example 172, (R)-4-((1-(2-fluoro-3-(trifluoromethyl)phenyl)ethyl)amino)-1-(4-tert-butylpiperazin-1-yl)-6-(1-methylcyclopropyl) pyrido[3,4-d]pyridazin-7(6H)-one]
IC50: 4.7 nM

C[C@@H](Nc1nnc(N2CCN(C3CCC3)CC2)c2cc(=O)n(C3(C)CC3)cc12)c1cccc(C(F)(F)F)c1F [Example 173, (R)-4-((1-(2-fluoro-3-(trifluoromethyl)phenyl)ethyl)amino)-1-(4-cyclobutylpiperazin-1-yl)-6-(1-methylcyclopropyl) pyrido[3,4-d]pyridazin-7(6H)-one]
IC50: 5.3 nM

C[C@@H](Nc1nnc(N2CCN(C)C(=O)C2)c2cc(=O)n(C3(C)CC3)cc12)c1cccc(C(F)(F)F)c1F [Example 174, (R)-4-((1-(2-fluoro-3-(trifluoromethyl)phenyl)ethyl)amino)-1-(4-methyl-3-oxopiperazin-1-yl)-6-(1-methylcyclopropyl) pyrido[3,4-d]pyridazin-7(6H)-one]
IC50: 20.2 nM

C[C@@H](Nc1nnc(N2CC3CC2CO3)c2cc(=O)n(C3(C)CC3)cc12)c1cccc(C(F)(F)F)c1F (stereo partly drawn) [Example 175, 1-(2-oxa-5-azabicyclo[2.2.1]heptan-5-yl)-4-(((R)-1-(2-fluoro-3-(trifluoromethyl)phenyl)ethyl)amino)-6-(1-methylcyclopropyl) pyrido[3,4-d]pyridazin-7(6H)-one]
IC50: 13 nM

C[C@@H](Nc1nnc(N2CC(CO)C2)c2cc(=O)n(C3(C)CC3)cc12)c1cccc(C(F)(F)F)c1 [Example 177, (R)-1-(3-(hydroxymethyl)azetidin-1-yl)-6-(1-methylcyclopropyl)-4-((1-(3-(trifluoromethyl)phenyl)ethyl)amino)pyr ido[3,4-d]pyridazin-7(6H)-one formate]
IC50: 6.2 nM

C[C@@H](Nc1nnc(N2CC[C@@H](CO)C2)c2cc(=O)n(C3(C)CC3)cc12)c1cccc(C(F)(F)F)c1 [Example 178, 1-((R)-3-(hydroxymethyl)pyrrolidin-1-yl)-6-(1-methylcyclopropyl)-4-(((R)-1-(3-(trifluoromethyl)phenyl)ethyl)amino)pyr ido[3,4-d]pyridazin-7(6H)-one formate]
IC50: 6.3 nM

C[C@@H](Nc1nnc(N2CC[C@H](CO)C2)c2cc(=O)n(C3(C)CC3)cc12)c1cccc(C(F)(F)F)c1 [Example 179, 1-((S)-3-(hydroxymethyl)pyrrolidin-1-yl)-6-(1-methylcyclopropyl)-4-(((R)-1-(3-(trifluoromethyl)phenyl)ethyl)amino)pyr ido[3,4-d]pyridazin-7(6H)-one formate]
IC50: 6.4 nM

C[C@@H](Nc1nnc(N2CCN(C)[C@@H](C)C2)c2cc(=O)n(C3(C)CC3)cc12)c1cccc(C(F)(F)F)c1 [Example 180, 1-((S)-3,4-dimethylpiperazin-1-yl)-6-(1-methylcyclopropyl)-4-(((R)-1-(3-(trifluoromethyl)phenyl)ethyl)amino)pyr ido[3,4-d]pyridazin-7(6H)-one formate]
IC50: 7.2 nM

C[C@@H](Nc1nnc(N2CCN(C3CC3)CC2)c2cc(=O)n(C3(C)CC3)cc12)c1cccc(C(F)(F)F)c1 [Example 181, (R)-1-(4-cyclopropylpiperazin-1-yl)-6-(1-methylcyclopropyl)-4-((1-(3-(trifluoromethyl)phenyl)ethyl)amino)pyr ido[3,4-d]pyridazin-7(6H)-one formate]
IC50: 7.8 nM

C[C@@H](Nc1nnc(N2CC3(CCOCC3)C2)c2cc(=O)n(C3(C)CC3)cc12)c1cccc(C(F)F)c1F [Example 182, (R)-4-((1-(3-(difluoromethyl)-2-fluorophenyl)ethyl)amino)-6-(1-methylcyclopropyl)-1-(7-oxa-2-azaspiro[3.5]nonan-2-yl)pyrido[3,4-d]pyridazin-7(6H)-one]
IC50: 5 nM

C[C@@H](Nc1nnc(N2CCC3(CCN(C)C3)C2)c2cc(=O)n(C3(C)CC3)cc12)c1cccc(C(F)F)c1F (stereo partly drawn) [Example 183, 4-(((R)-1-(3-(difluoromethyl)-2-fluorophenyl)ethyl)amino)-1-(7-methyl-2,7-diazaspiro[4.4]nonan-2-yl)-6-(1-methylcyclopropyl) pyrido[3,4-d]pyridazin-7(6H)-one]
IC50: 4.9 nM

C[C@@H](Nc1nnc(N2CCC3(CCC3)CC2)c2cc(=O)n(C3(C)CC3)cc12)c1cccc(C(F)F)c1F [Example 184, (R)-4-((1-(3-(difluoromethyl)-2-fluorophenyl)ethyl)amino)-6-(1-methylcyclopropyl)-1-(7-azaspiro[3.5]nonan-7-yl)pyrido[3,4-d]pyridazin-7(6H)-one]
IC50: 40.2 nM

C[C@@H](Nc1nnc(N2CCC3(CCCC3)CC2)c2cc(=O)n(C3(C)CC3)cc12)c1cccc(C(F)F)c1F [Example 185, (R)-4-((1-(3-(difluoromethyl)-2-fluorophenyl)ethyl)amino)-6-(1-methylcyclopropyl)-1-(8-azaspiro[4.5]decan-8-yl)pyrido[3,4-d]pyridazin-7(6H)-one]
IC50: 84.3 nM

C[C@@H](Nc1nnc(N2CCC3(CC2)CC3(F)F)c2cc(=O)n(C3(C)CC3)cc12)c1cccc(C(F)F)c1F [Example 186, (R)-1-(1,1-difluoro-6-azaspiro[2.5]octan-6-yl)-4-((1-(3-(difluoromethyl)-2-fluorophenyl)ethyl)amino)-6-(1-methylcyclopropyl) pyrido[3,4-d]pyridazin-7(6H)-one]
IC50: 31.1 nM

C[C@@H](Nc1nnc(N2CCC3(CC3)C2)c2cc(=O)n(C3(C)CC3)cc12)c1cccc(C(F)F)c1F [Example 187, (R)-4-((1-(3-(difluoromethyl)-2-fluorophenyl)ethyl)amino)-6-(1-methylcyclopropyl)-1-(5-azaspiro[2.4]heptan-5-yl)pyrido[3,4-d]pyridazin-7(6H)-one]
IC50: 4.8 nM

C[C@@H](Nc1nnc(N2CC3CCCC3C2)c2cc(=O)n(C3(C)CC3)cc12)c1cccc(C(F)F)c1F (stereo partly drawn) [Example 188, 4-(((R)-1-(3-(difluoromethyl)-2-fluorophenyl)ethyl)amino)-1-(hexahydrocyclopenta[c]pyrrol-2(1H)-yl)-6-(1-methylcyclopropyl) pyrido[3,4-d]pyridazin-7(6H)-one]
IC50: 3.1 nM

C[C@@H](Nc1nnc(N2CC3C(C2)C3(C)C)c2cc(=O)n(C3(C)CC3)cc12)c1cccc(C(F)F)c1F (stereo partly drawn) [Example 189, 4-(((R)-1-(3-(difluoromethyl)-2-fluorophenyl)ethyl)amino)-1-(6,6-dimethyl-3-azabicyclo[3.1.0]hexan-3-yl)-6-(1-methylcyclopropyl) pyrido[3,4-d]pyridazin-7(6H)-one]
IC50: 4.3 nM

C[C@@H](Nc1nnc(N2CC3(COC3)C2)c2cc(=O)n(C3(C)CC3)cc12)c1cccc(C(F)F)c1F [Example 190, (R)-4-((1-(3-(difluoromethyl)-2-fluorophenyl)ethyl)amino)-6-(1-methylcyclopropyl)-1-(2-oxa-6-azaspiro[3.3]heptan-6-yl)pyrido[3,4-d]pyridazin-7(6H)-one]
IC50: 4.2 nM

C[C@@H](Nc1nnc(N2CC3CCC(C2)N3C)c2cc(=O)n(C3(C)CC3)cc12)c1cccc(C(F)F)c1F [Example 193]
IC50: 4.3 nM

C[C@@H](Nc1nnc(N2CC3(CC(O)C3)C2)c2cc(=O)n(C3(C)CC3)cc12)c1cccc(C(F)F)c1F [Example 196, (R)-4-((1-(3-(difluoromethyl)-2-fluorophenyl)ethyl)amino)-1-(6-hydroxy-2-azaspiro[3.3]heptan-2-yl)-6-(1-methylcyclopropyl) pyrido[3,4-d]pyridazin-7(6H)-one]
IC50: 3.7 nM

C[C@@H](Nc1nnc(N2CCC3(C2)CS(=O)(=O)C3)c2cc(=O)n(C3(C)CC3)cc12)c1cccc(C(F)F)c1F [Example 197, (R)-4-((1-(3-(difluoromethyl)-2-fluorophenyl)ethyl)amino)-1-(2,2-dioxido-2-thia-6-azaspiro[3.4]octan-6-yl)-6-(1-methylcyclopropyl) pyrido[3,4-d]pyridazin-7(6H)-one]
IC50: 5 nM
